From paper PMC9323733, “Efficacy of Vafidemstat in Experimental Autoimmune Encephalomyelitis Highlights the KDM1A/RCOR1/HDAC Epigenetic Axis in Multiple Sclerosis” (Pharmaceutics, 2022)
“Also recorded” adds a separate entry of the source.

What was measured:
recombinant HDAC2 = molecular target: T1, recombinant HDAC2 (Homo sapiens, UniProt Q92769); test: HDAC2 fluorimetric biochemical assay
T1 construct: purchased BPS Bioscience 50002
Method: HDAC2 activity was determined using a fluorimetric assay at BPS Bioscience (San Diego, CA, USA). Compounds were dissolved in DMSO (Sigma), and serial dilutions were further diluted in HDAC assay buffer (BPS). These working solutions were incubated in duplicate at room temperature for 3 h in a mixture containing HDAC assay buffer, BSA (Fisher Scientific), and recombinant HDAC2 (BPS). The enzymatic reactions were initiated by the addition of a fluorogenic, acetylated peptide substrate (BPS) and proceeded for 30 min at 37 °C. Then, HDAC assay developer (BPS) was added, and after further incubation at room temperature, fluorescence intensity was measured at an excitation of 360 nm and an emission of 460 nm using a Tecan Infinite M1000 microplate reader. Trichostatin A (TSA, Selleckchem, Houston, TX, USA) was used as a reference inhibitor.
For the biochemical assays, the fluorescence signal relative to the background (assay mixture in the absence of the enzyme) was subtracted from each fluorescent intensity data. Activity in the presence of compound was expressed as a percentage of fluorescence intensity in the absence of the compound.

circulating lymphocytes = test: Toxicity studies, overall statements (circulating lymphocytes, gastrointestinal toxicity); format: in vivo, rat and dog; settings: for total number of circulating lymphocytes: at doses effective in EAE and TMEV models
Text: (§1) T r eat m e nt N Ly m p h o c y te s Equivalent m ou se d o se
(§2) ( mg /k g p. o. ga va g e) (109/ L ) ( mg /k g p.o ga va ge)
(§3) 6 m ont h s W i sta r r at s
(§4) 9 m ont h s Be ag le d og s
(§5) Eff ec t of t r ea t me nt wi t h O RY-2 00 1 a d mi ni st e r e d by or al ga va ge o n l y m ph oc yt e s ob se r ve d i n G LP
(§6) t ox i c ol ogi c a l st udi e s i n r at a nd do g. A ni ma l s we r e t re a t e d or al l y (fi ve c o ns e c ut i ve da ys/ we e k) by ga va ge
(§7) 28 da ys or 6 mo nt hs ( ra t s) a nd 28 da ys or 9 mo nt hs (dogs). Data re prese nt de me a n ± S D. T he e q ui va l e n t
(§8) dos e i n m o use i s i n di c at e d. 1-wa y A N OV A a n d D u n ne t t’ s M ul ti pl e C o m pa ri so n t e st wa s use d.

lymphocytes = test: GLP toxicological studies, lymphocyte count, dogs; format: in vivo, Beagle dogs; settings: mean ± SD
Text: as §1, §2, §3, §4, §5, §6, §7, §8

human S1P1 receptor = molecular target: T2, human S1P1 receptor (Homo sapiens, UniProt P21453); test: CellKey impedance assay in CHO cells, agonistic and antagonistic effect; format: cell-based; settings: GPCR based impedance assays
T2 construct: host or cells: CHO cells
T2 sequence (P21453 whole entry): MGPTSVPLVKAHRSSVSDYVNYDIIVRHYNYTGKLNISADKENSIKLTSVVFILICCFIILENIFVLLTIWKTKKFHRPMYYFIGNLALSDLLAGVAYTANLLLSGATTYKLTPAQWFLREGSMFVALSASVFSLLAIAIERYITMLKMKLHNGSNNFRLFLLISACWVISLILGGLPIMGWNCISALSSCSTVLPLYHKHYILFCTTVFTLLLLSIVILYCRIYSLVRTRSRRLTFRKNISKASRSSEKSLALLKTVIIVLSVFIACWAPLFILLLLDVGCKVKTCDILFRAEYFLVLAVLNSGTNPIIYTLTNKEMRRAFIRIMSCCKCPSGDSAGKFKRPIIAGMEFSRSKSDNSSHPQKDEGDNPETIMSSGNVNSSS
Method: Cell on impedance modulation, using the CellKey (Cellular Dielectric Spectroscopy) detection method (CellKey 96, MDS Sciex, Concord, ON, Canada) at Eurofins Pharma Discovery Services (Celle-Lévescault, France). CHO cells were seeded onto a 96-well plate at 15.104 cells/well in HBSS buffer (Invitrogen), 20 mM HEPES (Invitrogen), 10% FCS (Invitrogen), and 0.1% BSA (Sigma), allowed to equilibrate for 60 min at 28 °C. DMSO solutions of compounds were diluted in HBSS and 0.1% BSA. Plates were placed onto the system, and measurements were made at a temperature of 28 °C. To measure the agonistic effect, compounds and controls in duplicate were added simultaneously to all of the wells using an integrated fluidics system. Impedance measurements were monitored for 10 min after ligand addition. […] To measure the antagonistic effect, compounds and controls in duplicate were pre-incubated for 15 min before the addition of the reference agonist S1P at 0.01 µM (EC80). Impedance measurements were monitored for 10 min.
Evaluation of the agonistic (a) and antagonist (b) effect of the compounds on the human S1P1 receptor. […] Data are expressed as percentage of control (no compound) activity, n = 2. TSA was used as a control; (d) Cellular HDAC activity assay. […] SAHA was used as a control. Ponceau S staining was used as loading control. Veh: Vehicle. […] TSA: Trichostatin A. SAHA: suberoylanilide hydroxamic acid.

[1] = test system: spleen cells isolated from mice suffering chronic EAE; test: Encephalitogenic T-cell response in vitro, spleen cells of EAE mice re-stimulated with MOG35–55; format: cell-based, mouse; settings: 0.5 µM ORY-2001, MOG35–55 15 µM
Method: Spleen and draining lymph node (DLN) cells (10^6/mL) collected from EAE mice were stimulated in complete medium (RPMI 1640 containing 10% FBS, 50 µM 2-ME, 2 mM L-glutamine, 100 U/mL penicillin, and 100 µg/mL streptomycin) with 15 µM MOG35–55. After 48 h, cytokine (IL-4, TNF-alpha, IFN-gamma) and chemokine (IP-10 and MCP1) contents in culture supernatants were determined by sandwich ELISAs using capture/biotinylated detection Abs according to the manufacturer’s recommendations. The antibodies used are indicated in Supplementary Materials Table S4. Cell proliferation was evaluated after 72 h by adding 2.5 µCi/mL tritiated-thymidine during the last 8 h of culture and determining cpm incorporation in a Microbeta counter. We used T cell activation with an anti-CD3 […] antibody (1 µg/mL) or ConA (2.5 µg/mL) as controls of unspecific polyclonal stimulation.
Data are the mean ± SEM with dots representing individual values of biologically independent animals.

T1 sequence (Q92769 whole entry): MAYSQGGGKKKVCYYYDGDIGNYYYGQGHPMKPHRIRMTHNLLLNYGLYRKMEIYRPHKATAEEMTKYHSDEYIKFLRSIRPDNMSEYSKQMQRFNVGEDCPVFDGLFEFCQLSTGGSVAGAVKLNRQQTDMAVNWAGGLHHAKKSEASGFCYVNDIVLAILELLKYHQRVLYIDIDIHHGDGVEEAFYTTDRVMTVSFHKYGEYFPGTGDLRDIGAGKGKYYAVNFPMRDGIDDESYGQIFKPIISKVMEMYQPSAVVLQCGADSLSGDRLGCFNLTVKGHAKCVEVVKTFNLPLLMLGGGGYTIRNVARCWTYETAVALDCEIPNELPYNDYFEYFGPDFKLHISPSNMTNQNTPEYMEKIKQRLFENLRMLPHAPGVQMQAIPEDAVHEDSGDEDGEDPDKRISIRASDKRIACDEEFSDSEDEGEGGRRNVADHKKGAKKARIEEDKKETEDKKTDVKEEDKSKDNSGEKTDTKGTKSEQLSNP

CCCCCCCCc1ccc(CCC(N)(CO)CO)cc1 [FTY720, Fingolimod, reference compound]
impact on recombinant HDAC2 activity (recombinant HDAC2): did not inhibit HDAC; also recorded: unable to confirm the previous studies reporting that FTY720 or FTY720-P had any significant impact

Nc1nnc(CN[C@@H]2C[C@H]2c2ccc(OCc3ccccc3)cc2)o1 [ORY-2001]
total number of circulating lymphocytes (circulating lymphocytes): did not significantly impact the total number of circulating lymphocytes
total number of circulating lymphocytes (circulating lymphocytes; listed as vafidemstat): do not significantly impact the total number of circulating lymphocytes; also recorded: do not significantly affect hematology or lymphocyte counts
gastrointestinal toxicity (circulating lymphocytes; at effective doses, listed as vafidemstat): did not induce any signs of gastrointestinal toxicity; also recorded: without signs of gastro-intestinal toxicity
Lymphocytes (lymphocytes; 9 months Beagle dogs, 0.025 mg/kg p.o. gavage (equivalent mouse dose 0.15)): 2.10 ± 0.60 109/L
Lymphocytes (lymphocytes; 9 months Beagle dogs, 0.075 mg/kg p.o. gavage (equivalent mouse dose 0.45)): 2.90 ± 0.30 109/L
Lymphocytes (lymphocytes; 9 months Beagle dogs, 0.150 mg/kg p.o. gavage (equivalent mouse dose 0.90)): 2.75 ± 1.04 109/L
Lymphocytes (lymphocytes; 28 d Beagle dogs, 0.025 mg/kg p.o. gavage (equivalent mouse dose 0.15)): 3.31 ± 0.41 109/L
Lymphocytes (lymphocytes; 28 d Beagle dogs, 0.075 mg/kg p.o. gavage (equivalent mouse dose 0.45)): 2.88 ± 1.02 109/L
Lymphocytes (lymphocytes; 28 d Beagle dogs, 0.225 mg/kg p.o. gavage (equivalent mouse dose 1.35)): 4.33 ± 1.08 109/L
agonist and antagonist activity at S1P1 receptor (human S1P1 receptor): neither ORY-2001 nor ORY-LSD1 (at concentrations well above those needed to fully inhibit KDM1A) showed any activity
agonist and antagonist activity at S1P1 receptor (human S1P1 receptor; listed as vafidemstat): does not target the S1PR
IL-10 and IL-4 levels [1]: increasing the levels of the anti-inflammatory mediators IL-10 and IL-4
MOG35–55-induced proliferation and cytokine production [1]: deactivated the MOG35–55 -induced proliferation and cytokine production in vitro
